Measurements published in patent publication US20220347144A1, “COMPOSITIONS AND METHODS FOR PREVENTING AND/OR REDUCING WEIGHT GAIN AND ASSOCIATED CONDITIONS” (University of Virginia Patent Foundation, priority 2019, published 2022).
Entries after “also recorded” stand apart in the source; their conditions may differ.

Assays:
Type in all cases: in vivo, mouse
C57Bl/6J mice [1] = test: Plasma C24:1-ceramides after 72 hours on the diets; settings: control and HFDs; 72 hours on diets
Description: Diets. Diets were obtained from Research Diets (New Brunswick, N.J., United States of America). The low fat chow was D12450Ji (10 kcal % fat) and the high fat chow was D12492 (60 kcal % fat). These two chows were reformulated by replacing a portion of dietary fat with an ethyl ester of nervonic acid from Nu-Chek Prep (Elysian, Minn., United States of America) to produce isocaloric diets with nervonic acid at 6 g per kg of diet (0.6%). For the three most prevalent fatty acids in these diets: C16 comprised 14.4%, 11.7%, 18.5%, and 18.1%; C18:1 comprised 27.4%, 22.8%, 32%, and 31.4%; and C18:2 comprised 39.6%, 36.2%, 26.9%, and 26.5% of the fatty acid composition of the Cnt, Cnt+NA, HFD, and HFD+NA diets, respectively. Mice were started on diets at ˜8 weeks of age and given ad libitum access.
Sphingolipid and acylcarnitine measurements by liquid chromatography-mass spectrometry. Sphingolipids were analyzed as described previously (Wijesinghe et al., 2010) for FIG. 1B or with modifications described herein. Liver samples from rats fed a low or high fat diet were obtained from Scot Kimball's laboratory at the Pennsylvania State University (Hershey, Pa.). Mouse liver samples were analyzed with modifications as described previously (Pearson et al., 2020). […]

C57Bl/6J mice [2] = test: Fecal caloric content by bomb calorimetry
Experimental: For determination of energy expenditure, respiratory exchange ratios, and activity, mice were placed in an Oxymax metabolic chamber systems (Comprehensive Laboratory Animal Monitoring System, CLAMS, from Columbus Instruments (Columbus, Ohio, United States of America). Oxygen consumption (V02) and carbon dioxide production (VCO2) were determined for each mouse every 18 minutes over 72 hours with ambulatory activity assessed every minute over this same time period. Only the last two complete light and dark cycles (spanning 48 hours) were used for data analysis. Feces was collected from these studies and shipped to the Mouse Metabolic Phenotyping Core at the University of Texas Southwestern for bomb calorimetry analysis using a Parr 6200 Isoperibol Calorimeter (Parr Instrument Company, Moline, Ill., United States of America).

C57Bl/6J mice [3] = test: Fasting and random-fed blood glucose; settings: for fasting blood glucose / random-fed blood glucose: HFD+NA versus HFD, 8 weeks on diets
Experimental: (§1) Insulin Tolerance Test (ITT) and Glucose Tolerance Test (GTT) and analysis of blood glucose and plasma insulin. ITT and GTT were performed as described in Lansey et al., 2012. Briefly, for ITT, random-fed mice were given an intraperitoneal injection (IP) of insulin (0.75 U/kg in 0.9% NaCl). Blood glucose levels were determined by a glucometer (Contour Next EZ Blood Glucose Monitoring System, Bayer, Leverkusen, Germany) at the indicated time points after injection. For GTT, mice were fasted for 16 hours prior to testing. D-Glucose, prepared the day before, was administered via an IP injection (1 g/kg), and blood glucose levels were determined by a glucometer at the indicated time points after injection. Plasma insulin levels were determined using a STELLUX® brand Chemi Rodent Insulin ELISA kit (Cat. No. 80-INSMR-CHO1; APLCO, Salem, N.H., United States of America) or an Ultrasensitive Rat/Mouse Insulin ELISA kit, Low Range Assay (Cat. No. 90060; Crystal Chem, Downers Grove, Ill., United States of America). The luminescence assay was conducted using a VICTOR2 Plate Reader (Perkin Elmer, Waltham, Mass., United States of America).

C57Bl/6J mice [4] = test: Plasma insulin (fasting and after IP glucose); settings: for fasting (basal) plasma insulin levels: HFD+NA versus HFD; for fasting (basal) plasma insulin levels / fasting plasma insulin levels: 8 weeks; for increase in insulin after intraperitoneal administration of glucose: HFD+NA, 30 min after IP glucose; for fasting plasma insulin levels: control diet with NA
Experimental: as §1
For assessment of insulin, blood was collected with heparinized capillary tubes and subsequently centrifuged to obtain plasma. Insulin levels was then determined using a STELLUX® Chemi Rodent Insulin ELISA kit (Catalog No. 80-INSMR-CHO1, APLCO, Salem, N.H., United States of America) or an Ultrasensitive Rat/Mouse Insulin ELISA kit low range (Cat. No 90060; Crystal Chem, Downers Grove, Ill., United States of America). The luminescence assay was conducted using a VICTOR2 Plate Reader (Perkin Elmer, Waltham, Mass., United States of America).

C57Bl/6J mice [5] = test: Glucose Tolerance Test (GTT); settings: HFD+NA versus HFD, 10 weeks on diets
Experimental: as §1

C57Bl/6J mice [6] = test: Liver acylcarnitine levels by LC-MS/MS
Experimental: Acylcarnitines were quantified as their butyl esters as described in Giesbertz et al., 2015. Briefly, liver tissue was extracted in ice-cold methanol spiked with stable-isotopically labeled internal standards (Cambridge Isotope Laboratories, Tewksbury, Mass., United States of America). Insoluble material was pelleted and the supernatant subsequently dried down under vacuum. Samples were solubilized in n-butanol containing 5% acetyl chloride and incubated for 60° C. for 20 minutes, Samples were subsequently dried down again and resuspended in 50:50 water:methanol for LC-ESI-MS/MS analysis. LC-MS/MS analysis was performed on a I-class Acquity with a 2.1 mm×10 cm C18 CSH […] particle size column coupled to an in-line TQ-S mass spectrometer using multiple reaction monitoring. Calibration curves were generated from standard mixtures of acylcarnitines from Cambridge Isotope Laboratories.

[7] = NA enrichment in both the control diet and the HFD

## (Z)-tetracos-15-enoic acid [NA]
C57Bl/6J mice [1]
  plasma C24:1-ceramides: significant increases
C57Bl/6J mice [2]; HFD+NA versus HFD
  fecal caloric content: No differences
C57Bl/6J mice [2]; control+NA versus control
  fecal caloric content: No differences
C57Bl/6J mice [3]
  fasting blood glucose: significant reductions
  random-fed blood glucose: significant reductions
C57Bl/6J mice [3]; listed as nervonic acid
  fasting blood glucose: significant reduction
  random-fed blood glucose: significant reduction
C57Bl/6J mice [3]; HFD+NA versus control diet, random fed or fasted
  blood glucose levels: not significantly different
C57Bl/6J mice [3]; control with NA diet versus control
  blood glucose levels: No significant differences
C57Bl/6J mice [4]
  fasting (basal) plasma insulin levels: significantly reduced
  increase in insulin after intraperitoneal administration of glucose: no such increase
  fasting plasma insulin levels: did not affect insulin levels
C57Bl/6J mice [4]; listed as nervonic acid
  fasting (basal) plasma insulin levels: reduced insulin levels
  increase in insulin after intraperitoneal administration of glucose: not observed
  fasting plasma insulin levels: did not influence insulin levels
C57Bl/6J mice [5]
  glucose tolerance (glucose load, area under the curve): significantly improved glucose tolerance
C57Bl/6J mice [5]; listed as nervonic acid
  glucose tolerance (glucose load, area under the curve): reduction in the glucose load
C57Bl/6J mice [6]; HFD enriched with NA
  dicarboxyl-acylcarnitines C5 (C5-DC) and C6 (C6-DC) levels in liver: teductions
C57Bl/6J mice [6]; HFD+NA versus HFD
  long-chain acylcarnitines in liver: significant decreases; also recorded: largely restored to control levels
C57Bl/6J mice [6]; NA enrichment in both diets, C4-OH, C6-OH, C10-OH, C8-OH
  hydroxyl-fatty acylcarnitines in liver: increased
C57Bl/6J mice [6]; [7]
  acetyl-carnitine (C2) in liver: increased
  free carnitine (C0) in liver: increased
